Reference: article PMC11182235 (Frontiers in Ophthalmology, 2023)
Entries after “also recorded” stand apart in the source; their conditions may differ. Like-named read-outs stand apart in the source and are kept apart here.

Legend:
adult porcine RGCs = details: cited from earlier work
isolated rat RGCs = details: cited from earlier work
[1] = tested on: isolated retinal ganglion cells; details: cited from earlier work
RGC = details: in vivo; cited from earlier work
[2] = tested on: isolated retinal ganglion cells; type: cell-based, porcine
α4 nAChR = α4 nAChR (Sus scrofa, UniProt A0A286ZKF4+A0A287BFD8); type: binding, porcine; details: for Ki: read-out: Mean Ki against [3H]-cytisine
α4β2 nicotinic receptors = details: cited from earlier work
α7 nicotinic receptors = details: cited from earlier work
retinal ganglion cells = type: cell-based, rat
α3 nAChR = α3 nAChR (Sus scrofa, UniProt A0A287A7Z4); type: binding, porcine; details: read-out: Mean Ki against [3H]-epibatidine
α7 nAChR = α7 nAChR (Sus scrofa, UniProt F1SNR6); assay: biochemical; type: binding, porcine
α7 nAChRs = details: cited from earlier work
α3β4 receptors = details: cited from earlier work
[3] = rat retinal slice, RGCs, fluo-4 fluorescence, n = 4

Chain of α7 nAChR (F1SNR6 20-499 limits assumed): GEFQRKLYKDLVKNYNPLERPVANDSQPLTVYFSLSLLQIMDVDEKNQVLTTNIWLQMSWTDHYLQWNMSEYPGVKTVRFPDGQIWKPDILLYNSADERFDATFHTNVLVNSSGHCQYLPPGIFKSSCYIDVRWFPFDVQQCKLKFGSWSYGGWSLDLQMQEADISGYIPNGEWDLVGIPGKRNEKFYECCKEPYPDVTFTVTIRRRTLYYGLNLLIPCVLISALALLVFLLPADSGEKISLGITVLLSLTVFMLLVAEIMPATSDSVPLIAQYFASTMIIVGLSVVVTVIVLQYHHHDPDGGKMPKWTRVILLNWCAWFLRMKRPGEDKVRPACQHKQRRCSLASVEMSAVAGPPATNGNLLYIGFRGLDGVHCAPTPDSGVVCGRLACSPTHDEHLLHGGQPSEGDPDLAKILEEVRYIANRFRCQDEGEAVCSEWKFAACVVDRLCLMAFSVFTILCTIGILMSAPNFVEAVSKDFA
Chain of α4 nAChR (A0A286ZKF4 31-595 limits assumed): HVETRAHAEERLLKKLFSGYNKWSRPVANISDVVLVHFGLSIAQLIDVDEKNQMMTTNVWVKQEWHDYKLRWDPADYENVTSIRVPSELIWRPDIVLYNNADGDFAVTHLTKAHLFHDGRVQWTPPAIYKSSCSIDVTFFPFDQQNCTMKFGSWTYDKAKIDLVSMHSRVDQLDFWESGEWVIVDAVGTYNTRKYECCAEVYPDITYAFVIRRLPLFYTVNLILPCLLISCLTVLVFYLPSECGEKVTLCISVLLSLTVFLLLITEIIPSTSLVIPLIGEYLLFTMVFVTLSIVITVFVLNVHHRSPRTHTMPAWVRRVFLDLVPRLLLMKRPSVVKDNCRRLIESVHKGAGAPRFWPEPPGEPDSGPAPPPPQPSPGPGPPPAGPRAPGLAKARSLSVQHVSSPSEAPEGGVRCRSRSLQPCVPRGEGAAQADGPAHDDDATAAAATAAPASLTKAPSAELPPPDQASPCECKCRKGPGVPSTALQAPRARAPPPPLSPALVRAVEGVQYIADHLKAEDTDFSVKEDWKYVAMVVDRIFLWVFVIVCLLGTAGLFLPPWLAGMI
Chain of α4 nAChR (A0A287BFD8 26-502 limits assumed): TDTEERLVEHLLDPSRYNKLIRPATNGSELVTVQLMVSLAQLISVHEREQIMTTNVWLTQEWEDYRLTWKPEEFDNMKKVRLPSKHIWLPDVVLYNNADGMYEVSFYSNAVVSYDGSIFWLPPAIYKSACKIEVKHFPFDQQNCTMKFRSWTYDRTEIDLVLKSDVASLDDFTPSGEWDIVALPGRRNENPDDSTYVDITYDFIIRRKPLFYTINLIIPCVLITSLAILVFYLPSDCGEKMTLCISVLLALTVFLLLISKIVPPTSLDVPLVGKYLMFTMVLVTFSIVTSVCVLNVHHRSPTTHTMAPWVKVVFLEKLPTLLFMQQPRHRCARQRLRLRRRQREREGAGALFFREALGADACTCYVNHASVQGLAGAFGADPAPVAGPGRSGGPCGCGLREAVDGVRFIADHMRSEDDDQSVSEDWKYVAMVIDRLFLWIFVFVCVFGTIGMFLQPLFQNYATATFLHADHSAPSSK
Chain of α3 nAChR (A0A287A7Z4 30-503 limits assumed): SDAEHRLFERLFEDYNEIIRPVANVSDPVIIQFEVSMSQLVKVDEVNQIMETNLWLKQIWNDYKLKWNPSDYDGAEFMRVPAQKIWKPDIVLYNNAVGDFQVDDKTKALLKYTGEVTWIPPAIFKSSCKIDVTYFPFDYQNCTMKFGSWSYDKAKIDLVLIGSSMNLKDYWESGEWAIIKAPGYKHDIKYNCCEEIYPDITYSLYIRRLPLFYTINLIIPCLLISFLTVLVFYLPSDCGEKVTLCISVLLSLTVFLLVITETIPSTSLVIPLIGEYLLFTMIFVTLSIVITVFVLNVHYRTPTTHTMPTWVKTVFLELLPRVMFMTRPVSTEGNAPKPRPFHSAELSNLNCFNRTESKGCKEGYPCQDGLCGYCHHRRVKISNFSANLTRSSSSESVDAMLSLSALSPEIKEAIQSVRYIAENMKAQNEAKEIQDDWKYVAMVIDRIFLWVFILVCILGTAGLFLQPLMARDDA

## CC(=O)OCC[N+](C)(C)C [ACh, acetylcholine]
Adult porcine RGCs
  Reduction of glutamate-induced excitotoxicity: significantly reduced

## CCN1C[C@]2(COC(=O)c3ccccc3N3C(=O)C[C@H](C)C3=O)CC[C@H](OC)[C@@]34[C@@H]5C[C@H]6[C@H](OC)[C@@H]5[C@](O)(C[C@@H]6OC)[C@@](O)([C@@H](OC)[C@H]23)[C@@H]14 [MLA, Methyllycaconitine]
Isolated rat RGCs
  Block of neuroprotective effect of 100 nM PNU-282987 against glutamate-induced toxicity: blocked; also recorded: inhibited the protective effects

## O=C(N[C@H]1CN2CCC1CC2)c1ccc(Cl)cc1 [PNU-282987]
[1]
  Cell numbers in porcine retinal cell culture relative to control: increased numbers of cells
Isolated rat RGCs
  Cell numbers in isolated rat RGC culture relative to control: increased numbers of cells
RGC
  RGC cell numbers in the intact rat: increase in RGC cell numbers
[2]
  Neuroprotection against glutamate-induced excitotoxicity: effective in the low-to-mid nanomolar concentration range

## C[N+](C)(C)CCO [choline]
Adult porcine RGCs
  Reduction of glutamate-induced excitotoxicity: significantly reduced

## Clc1ccc(C2CC3CCC2N3)cn1 (centres unmarked) [epibatidine]
α4 nAChR
  Ki: 0.1 ± 0.03 nM
α4β2 nicotinic receptors
  Ki: 0.02 nM
α7 nicotinic receptors
  Ki: 233 nM
Retinal ganglion cells
  Threshold dose, calcium response: 1 nM
α3 nAChR
  Ki: 0.7 ± 0.05 nM
α7 nAChR; read-out: Percent inhibition of [125I]-α-BTX binding
  inhibition at 100 µM: 3%

## CN1CCC[C@H]1c1cccnc1 [nicotine]
α4 nAChR
  Ki: 20 ± 0.7 nM
Adult porcine RGCs
  Concentration at which toxicity reported: 50 µM
  Reduction of glutamate-induced excitotoxicity: significantly reduced
Retinal ganglion cells; [3]
  Saturating dose, calcium response: 20 µM
  Threshold dose, calcium response: 2000 nM
α3 nAChR
  Ki: 220 ± 0.6 nM
[2]; additional preliminary and published experiments ([47])
  Protection against glutamate-induced excitotoxicity at higher levels: drop-off in protection at higher levels
α7 nAChR
  Ki: 300000 ± 22000 nM

## α-Bungarotoxin [α-BTX]
α7 nAChRs
  IC50: 1.6 nM
α3β4 receptors
  IC50: > 3000 nM
α4 nAChR; 0.1 µM
  Percent inhibition of [3H]-cytisine binding: 3% ± 3
[2]
  Effect of antagonist on neuroprotection by PNU-282987: reduction in the neuroprotective effects
α7 nAChR; read-out: Mean Ki against [125I]-α-BTX
  Ki: 170 ± 40 nM
